The results in this text go back to PubChem BioAssay (NCI).

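Cells were grown in 96-well plates and exposed to each compound for 48 hours at five concentrations; endpoints were interpolated linearly between bracketing concentrations, or set to the highest concentration if not reached. The concentration for full growth arrest is given as TGI.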 Some results are limits rather than exact numbers.

Among the test systems are EKVX NSCLC; UACC-62 melanoma; NCI-H226 lung; HS 578T breast; SF-295 CNS; HOP-62 NSCLC; SF-539 CNS; TK-10 renal; MOLT-4 leukemia; MCF7 breast; LOX IMVI melanoma; COLO 205 colon; U251 CNS; OVCAR-8 ovarian; HT29 colon; HCC-2998 colon; RXF 393 renal; SNB-19 CNS; 786-0 renal; KM12 colon.
Holding throughout (experiment): NCI tumour cell line growth inhibition, 48 h

For `CCOC(CN=C=S)OCC`, the TGI in the test on EKVX NSCLC, with UACC-62 melanoma, with NCI-H226 lung, in the test on HS 578T breast, in the test on SF-295 CNS and in the test with HOP-62 NSCLC was more than 10 µM each time. Moreover, the TGI in the test on SF-539 CNS, in the test with TK-10 renal, with MOLT-4 leukemia, in the test with MCF7 breast, with LOX IMVI melanoma and in the test with COLO 205 colon was more than 10 µM in each case. In addition, the TGI in the test on U251 CNS, with OVCAR-8 ovarian, in the test with HT29 colon, in the test with HCC-2998 colon, in the test with RXF 393 renal and in the test with SNB-19 CNS was more than 10 µM each time. Further, the TGI with 786-0 renal and in the test with KM12 colon was more than 10 µM each time.

For the compound `COc1ccc2c(C)cc(N/N=C(\C)C=O)nc2c1`, the TGI came out at 32.8 µM with EKVX NSCLC; 27.3 µM with UACC-62 melanoma; 24.7 µM in the test on NCI-H226 lung; 43.3 µM in the test with HS 578T breast; 28.8 µM with SF-295 CNS; 27.1 µM in the test with HOP-62 NSCLC. For the same compound, the TGI in the test with SF-539 CNS was determined as 20.3 µM; in the test with TK-10 renal, 30.1 µM; in the test on MOLT-4 leukemia it was 15.9 µM; in the test with MCF7 breast, 26 µM; in the test on LOX IMVI melanoma it was 24 µM; in the test with COLO 205 colon, 30.6 µM. The TGI in the test with U251 CNS stood at 30.4 µM; with OVCAR-8 ovarian, 25 µM; in the test on HT29 colon it was 25 µM; with HCC-2998 colon it was 24.5 µM; in the test on RXF 393 renal it was 30.2 µM; in the test with SNB-19 CNS it was 31.6 µM. Also, the values for the TGI with 786-0 renal and in the test on KM12 colon were 28.6 µM and 25.8 µM, respectively.

Consider `[N-]=[N+]=Nc1c(C=O)c(=O)n2c3c(cccc13)CCC2`, for which the TGI in the test with EKVX NSCLC was 50.5 µM; in the test with UACC-62 melanoma, 26.5 µM; in the test with NCI-H226 lung, 43.7 µM; in the test on HS 578T breast it was 57.3 µM; with SF-295 CNS it was more than 76.6 µM; in the test on HOP-62 NSCLC it was 35.2 µM. Besides, the TGI in the test with SF-539 CNS came to 36.1 µM; in the test on TK-10 renal, 10.1 µM; in the test with MOLT-4 leukemia, 4.26 µM; in the test with MCF7 breast it was 10.6 µM; in the test on LOX IMVI melanoma it was 25.4 µM; in the test on COLO 205 colon it was 4.63 µM. Further, the TGI was 19.5 µM in the test with U251 CNS; 17.8 µM in the test on OVCAR-8 ovarian; more than 70.2 µM with HT29 colon; 33.6 µM in the test on HCC-2998 colon; 3.76 µM in the test with RXF 393 renal; 42.1 µM with SNB-19 CNS. Besides, the TGI in the test with 786-0 renal turned out to be 8.83 µM; in the test with KM12 colon, 34.6 µM.

Take `O=C(C1OC1c1ccc(O)cc1)C12CC3CC(CC(C3)C1)C2` (stereo not given): the TGI in the test with EKVX NSCLC is more than 78.2 µM; in the test on UACC-62 melanoma it was more than 100 µM; with NCI-H226 lung it was more than 100 µM; in the test with HS 578T breast, more than 100 µM; with SF-295 CNS, more than 100 µM; with HOP-62 NSCLC it was more than 100 µM. For the same compound, the TGI in the test on SF-539 CNS is more than 94.9 µM; in the test with TK-10 renal it was more than 100 µM; with MOLT-4 leukemia it was more than 55.2 µM; in the test with MCF7 breast, more than 100 µM; with LOX IMVI melanoma, more than 56.1 µM; in the test with COLO 205 colon, more than 76.9 µM. Moreover, the TGI in the test with U251 CNS, in the test with OVCAR-8 ovarian, in the test with HT29 colon, with HCC-2998 colon, with RXF 393 renal and in the test on SNB-19 CNS was more than 100 µM each time. The TGI in the test on 786-0 renal is 48.2 µM; with KM12 colon, more than 100 µM.

Regarding `CC(=O)NC(CS/N=N/c1nc[nH]c1C(N)=O)C(=O)O` (stereo not given), the TGI in the test with EKVX NSCLC, with UACC-62 melanoma, with NCI-H226 lung, in the test on HS 578T breast, with SF-295 CNS and in the test with HOP-62 NSCLC was more than 100 µM throughout. In addition, the TGI in the test with SF-539 CNS is more than 100 µM; with TK-10 renal, more than 100 µM; in the test on MOLT-4 leukemia it was more than 36.1 µM; in the test with MCF7 breast, more than 100 µM; with LOX IMVI melanoma, more than 100 µM; in the test with COLO 205 colon, more than 100 µM. Further, the TGI with U251 CNS is more than 100 µM; in the test with OVCAR-8 ovarian, more than 100 µM; with HT29 colon, more than 100 µM; in the test with HCC-2998 colon, more than 27.9 µM; with RXF 393 renal, more than 100 µM; in the test on SNB-19 CNS, more than 100 µM. Also, the TGI in the test with 786-0 renal is more than 100 µM; in the test on KM12 colon, more than 45.3 µM.

`C=CC/C=C/Cc1csc(C(C)(C)C(O)C/C=C/C(=C)CCNC(=O)OC)n1` (stereo not given): the TGI with EKVX NSCLC, with UACC-62 melanoma, in the test on NCI-H226 lung, in the test on HS 578T breast, in the test on SF-295 CNS and in the test on HOP-62 NSCLC was more than 100 µM throughout. Also, the TGI in the test with SF-539 CNS, in the test with TK-10 renal, in the test on MOLT-4 leukemia, in the test on MCF7 breast, with LOX IMVI melanoma and in the test with COLO 205 colon was more than 100 µM each time. For the same compound, the TGI in the test with U251 CNS, in the test on OVCAR-8 ovarian, in the test on HT29 colon, in the test with HCC-2998 colon, in the test with RXF 393 renal and with SNB-19 CNS was more than 100 µM each time. Also, the TGI with 786-0 renal and in the test with KM12 colon was more than 100 µM in each case.

Consider `CC(NNC(=O)c1ccncc1)c1ccc(F)cc1` (stereo not given), for which the TGI with EKVX NSCLC, with UACC-62 melanoma, with NCI-H226 lung, in the test with HS 578T breast, in the test on SF-295 CNS and with HOP-62 NSCLC was more than 100 µM in each case. The TGI in the test with SF-539 CNS, in the test on TK-10 renal, with MOLT-4 leukemia, in the test on MCF7 breast, in the test with LOX IMVI melanoma and in the test with COLO 205 colon was more than 100 µM throughout. In addition, the TGI with U251 CNS, in the test with OVCAR-8 ovarian, in the test on HT29 colon, with HCC-2998 colon, with RXF 393 renal and in the test with SNB-19 CNS was more than 100 µM throughout. In addition, the TGI in the test on 786-0 renal and in the test on KM12 colon was more than 100 µM each time.
